Data on 6 molecules can be found in patent publication US20260115161A1, “2-HYDROXY-OCTADECENE-9-CIS-OATE FOR USE IN THE TREATMENT OF ONCOLOGICAL PATHOLOGIES AND NEUROPATHIC PAIN” (Laminar Pharmaceuticals S.A., priority 2023, published 2026).

The subject of one assay is NCI-H2021 Mesothelioma. As to the kind of experiment: Cell line assay, HOCOS combinations, NCI-H2021. In kind it is cell-based, human. The note with it: NCI-H2021, compound alone. Here is the method: (§1) To study the possible use of HOCOS in combinatorial therapies, human glioblastoma cells of lines U118, SNB19, SF268, human mesothelioma cells NCI-H2021 and pancreatic cancer cells BxPC-3 (pancreatic adenocarcinoma) and MIAPaCa-2 ([…]) were cultured in the absence or presence of different chemotherapeutic agents and combinations of HOCOS with said compounds.

The subject of another assay is A549 Lung. The assay is described as follows: Cell line assay, HOCOS combinations, A549. Format: cell-based. The note with it: Homo sapiens; A549, compound alone.
The subject of the next assay is BxPC-3 Pancreas. As to the kind of experiment: Cell line assay, HOCOS combinations, BxPC-3. In kind it is cell-based. The conditions noted are these: Homo sapiens; BxPC-3, compound alone. How it is done: as §1
The subject of the next assay is U118 Glioblastoma. The assay is described as follows: Cell line assay, HOCOS combinations, U118. In kind it is cell-based. The note with it: Homo sapiens; U118, compound alone. How it is done: as §1
The next assay concerns SNB19 Glioblastoma. As to the kind of experiment: cells. The note with it: Homo sapiens, SNB-19. How it is done: as §1
For assay [1], the system named is neuropathic pain due to spinal cord injury. The note with it: Cardenas et al., cited from earlier work.

The term IC50 denotes the midpoint of a concentration-inhibition curve. Turning to `N.N.[Cl][Pt][Cl]` [Cisplatin], the IC50 in the assay on NCI-H2021 Mesothelioma was determined as 16.4 µM. In the case of `C#Cc1cccc(Nc2ncnc3cc(OCCOC)c(OCCOC)cc23)c1` [Erlotinib], the 50% inhibitory concentration (IC50) in the assay on A549 Lung was 16 µM. `Nc1ccn([C@@H]2O[C@H](CO)[C@@H](O)C2(F)F)c(=O)n1` [Gemcitabine]: in the assay with BxPC-3 Pancreas, the IC50 was found to be 0.0078 µM. Regarding `CCc1c2c(nc3ccc(OC(=O)N4CCC(N5CCCCC5)CC4)cc13)-c1cc3c(c(=O)n1C2)COC(=O)[C@]3(O)CC` [Irinotecan], the IC50 with U118 Glioblastoma is 15 µM. In the case of `Cc1ncc(C[n+]2csc(CCO)c2C)c(N)n1` [Thiamine], in the assay with SNB19 Glioblastoma, the half-inhibitory concentration (IC50) worked out at 15400 µM. Regarding `CC(C)C[C@H](CN)CC(=O)O` [pregabalin], the “percentage of patients responding, pregabalin group” value in assay [1] (33% in the placebo group) was 48%. Also, in assay [1], the “mean reduction of neuropathic pain” value is recorded as 1.2 points on the VAS scale and the “patients responding to treatment” value was “approximately 50%”. Further, in assay [1] (VAS scale), the “difference between pregabalin and placebo groups” value is 0.82 points.
